Like-named read-outs stand apart in the source and are kept apart here.

For test [1], the target named is AEA-DA lipid probe targets in Neuro2a cells (Mus musculus, UniProt P29391).
Test [2] has as its target T1, AEA-DA lipid probe targets in Neuro2a cells (Mus musculus, UniProt P35564).
T1 sequence (P35564 21-591): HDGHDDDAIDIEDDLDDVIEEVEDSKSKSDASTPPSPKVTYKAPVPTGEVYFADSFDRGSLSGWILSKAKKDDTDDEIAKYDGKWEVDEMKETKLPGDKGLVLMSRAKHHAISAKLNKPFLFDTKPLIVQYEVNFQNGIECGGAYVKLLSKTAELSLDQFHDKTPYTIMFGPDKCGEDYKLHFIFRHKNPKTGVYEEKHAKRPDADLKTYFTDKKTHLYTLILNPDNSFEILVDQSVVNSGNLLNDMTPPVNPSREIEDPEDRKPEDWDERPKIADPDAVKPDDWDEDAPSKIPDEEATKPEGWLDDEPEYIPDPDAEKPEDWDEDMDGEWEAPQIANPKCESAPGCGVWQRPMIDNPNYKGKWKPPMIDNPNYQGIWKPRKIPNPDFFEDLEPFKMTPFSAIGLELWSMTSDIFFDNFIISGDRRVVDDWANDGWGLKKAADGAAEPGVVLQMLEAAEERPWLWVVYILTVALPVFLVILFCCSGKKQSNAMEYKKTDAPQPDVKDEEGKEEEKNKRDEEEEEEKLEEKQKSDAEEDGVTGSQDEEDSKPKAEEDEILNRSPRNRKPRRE

In test [3] the target is T2, AEA-DA lipid probe targets in Neuro2a cells (Mus musculus, UniProt Q5U680).
T2 sequence (Q5U680 1-274): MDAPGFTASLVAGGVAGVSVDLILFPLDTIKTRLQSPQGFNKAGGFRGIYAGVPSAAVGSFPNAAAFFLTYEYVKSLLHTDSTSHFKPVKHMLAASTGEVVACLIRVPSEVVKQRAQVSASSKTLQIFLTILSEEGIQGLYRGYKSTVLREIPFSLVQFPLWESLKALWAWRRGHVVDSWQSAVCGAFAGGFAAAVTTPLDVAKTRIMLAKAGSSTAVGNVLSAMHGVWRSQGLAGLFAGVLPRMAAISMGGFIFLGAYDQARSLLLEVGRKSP

For test [4], the target named is T3, AEA-DA lipid probe targets in Neuro2a cells (Mus musculus, UniProt Q61009).
T3 sequence (Q61009 1-509): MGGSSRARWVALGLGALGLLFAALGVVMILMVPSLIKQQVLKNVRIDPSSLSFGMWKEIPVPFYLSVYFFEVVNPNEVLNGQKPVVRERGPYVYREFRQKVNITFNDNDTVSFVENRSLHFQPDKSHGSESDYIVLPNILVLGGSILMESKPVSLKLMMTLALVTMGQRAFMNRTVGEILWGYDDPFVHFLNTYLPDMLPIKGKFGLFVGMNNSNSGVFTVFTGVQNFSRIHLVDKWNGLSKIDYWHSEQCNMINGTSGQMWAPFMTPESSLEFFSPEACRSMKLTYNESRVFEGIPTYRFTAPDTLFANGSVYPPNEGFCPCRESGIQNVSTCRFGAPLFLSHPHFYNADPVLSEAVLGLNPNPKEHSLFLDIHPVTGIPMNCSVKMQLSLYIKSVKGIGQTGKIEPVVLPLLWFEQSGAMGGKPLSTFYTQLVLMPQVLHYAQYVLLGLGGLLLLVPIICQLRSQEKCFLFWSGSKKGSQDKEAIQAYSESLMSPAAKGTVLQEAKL

Test [5] concerns the target AEA-DA lipid probe targets in Neuro2a cells (Mus musculus, UniProt Q62261).
For test [6], the target named is AEA-DA lipid probe targets in Neuro2a cells (Mus musculus, UniProt Q8VDL4).
Chain of AEA-DA lipid probe targets in Neuro2a cells (Mus musculus, UniProt Q8VDL4) (Q8VDL4 23-496): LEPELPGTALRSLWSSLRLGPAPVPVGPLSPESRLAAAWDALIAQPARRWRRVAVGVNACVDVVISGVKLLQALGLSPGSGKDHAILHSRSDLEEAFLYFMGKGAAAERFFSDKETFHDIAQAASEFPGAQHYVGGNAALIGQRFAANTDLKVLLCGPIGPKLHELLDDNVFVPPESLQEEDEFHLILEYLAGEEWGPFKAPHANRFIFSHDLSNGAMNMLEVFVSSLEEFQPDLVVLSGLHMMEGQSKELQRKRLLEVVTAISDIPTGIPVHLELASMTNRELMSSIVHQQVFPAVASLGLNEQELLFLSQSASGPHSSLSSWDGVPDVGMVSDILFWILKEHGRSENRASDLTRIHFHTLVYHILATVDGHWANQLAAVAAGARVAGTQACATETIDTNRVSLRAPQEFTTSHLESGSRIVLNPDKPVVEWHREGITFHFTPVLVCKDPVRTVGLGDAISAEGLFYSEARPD
Test [7] concerns the target T4, AEA-DA lipid probe targets in Neuro2a cells (Mus musculus, UniProt Q91ZN5).
T4 sequence (Q91ZN5 1-431): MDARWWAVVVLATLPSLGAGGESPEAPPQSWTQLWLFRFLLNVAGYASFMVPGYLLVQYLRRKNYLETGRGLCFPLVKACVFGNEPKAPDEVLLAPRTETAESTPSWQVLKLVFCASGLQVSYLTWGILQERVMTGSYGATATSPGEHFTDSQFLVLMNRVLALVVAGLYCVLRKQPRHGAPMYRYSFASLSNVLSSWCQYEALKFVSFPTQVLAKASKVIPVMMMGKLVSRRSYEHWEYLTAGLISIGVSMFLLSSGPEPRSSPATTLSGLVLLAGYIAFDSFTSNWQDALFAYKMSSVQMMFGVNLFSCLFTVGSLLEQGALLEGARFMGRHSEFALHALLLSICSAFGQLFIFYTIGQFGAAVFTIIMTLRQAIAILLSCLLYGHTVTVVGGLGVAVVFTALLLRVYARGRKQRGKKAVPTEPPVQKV

Test [8] addresses T5, AEA-DA lipid probe targets in Neuro2a cells (Mus musculus, UniProt Q924D0).
T5 sequence (Q924D0 41-396): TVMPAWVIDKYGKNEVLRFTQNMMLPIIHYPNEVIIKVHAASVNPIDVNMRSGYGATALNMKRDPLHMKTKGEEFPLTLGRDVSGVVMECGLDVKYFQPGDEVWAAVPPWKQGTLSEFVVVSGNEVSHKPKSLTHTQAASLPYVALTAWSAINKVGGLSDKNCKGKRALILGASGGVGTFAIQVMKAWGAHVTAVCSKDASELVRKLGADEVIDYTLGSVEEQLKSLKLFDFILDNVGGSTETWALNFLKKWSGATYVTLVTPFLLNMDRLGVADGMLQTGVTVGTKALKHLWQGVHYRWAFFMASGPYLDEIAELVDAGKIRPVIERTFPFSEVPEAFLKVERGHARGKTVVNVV
Conditions: protein Rtn4ip1, Neuro2a cells.

Chain of AEA-DA lipid probe targets in Neuro2a cells (Mus musculus, UniProt P29391) (P29391 whole entry): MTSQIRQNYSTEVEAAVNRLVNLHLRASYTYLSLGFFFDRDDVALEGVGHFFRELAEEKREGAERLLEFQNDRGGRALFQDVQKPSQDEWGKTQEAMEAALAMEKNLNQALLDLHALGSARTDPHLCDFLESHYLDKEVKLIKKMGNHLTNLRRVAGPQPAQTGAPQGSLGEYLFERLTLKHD
Chain of AEA-DA lipid probe targets in Neuro2a cells (Mus musculus, UniProt Q62261) (Q62261 whole entry): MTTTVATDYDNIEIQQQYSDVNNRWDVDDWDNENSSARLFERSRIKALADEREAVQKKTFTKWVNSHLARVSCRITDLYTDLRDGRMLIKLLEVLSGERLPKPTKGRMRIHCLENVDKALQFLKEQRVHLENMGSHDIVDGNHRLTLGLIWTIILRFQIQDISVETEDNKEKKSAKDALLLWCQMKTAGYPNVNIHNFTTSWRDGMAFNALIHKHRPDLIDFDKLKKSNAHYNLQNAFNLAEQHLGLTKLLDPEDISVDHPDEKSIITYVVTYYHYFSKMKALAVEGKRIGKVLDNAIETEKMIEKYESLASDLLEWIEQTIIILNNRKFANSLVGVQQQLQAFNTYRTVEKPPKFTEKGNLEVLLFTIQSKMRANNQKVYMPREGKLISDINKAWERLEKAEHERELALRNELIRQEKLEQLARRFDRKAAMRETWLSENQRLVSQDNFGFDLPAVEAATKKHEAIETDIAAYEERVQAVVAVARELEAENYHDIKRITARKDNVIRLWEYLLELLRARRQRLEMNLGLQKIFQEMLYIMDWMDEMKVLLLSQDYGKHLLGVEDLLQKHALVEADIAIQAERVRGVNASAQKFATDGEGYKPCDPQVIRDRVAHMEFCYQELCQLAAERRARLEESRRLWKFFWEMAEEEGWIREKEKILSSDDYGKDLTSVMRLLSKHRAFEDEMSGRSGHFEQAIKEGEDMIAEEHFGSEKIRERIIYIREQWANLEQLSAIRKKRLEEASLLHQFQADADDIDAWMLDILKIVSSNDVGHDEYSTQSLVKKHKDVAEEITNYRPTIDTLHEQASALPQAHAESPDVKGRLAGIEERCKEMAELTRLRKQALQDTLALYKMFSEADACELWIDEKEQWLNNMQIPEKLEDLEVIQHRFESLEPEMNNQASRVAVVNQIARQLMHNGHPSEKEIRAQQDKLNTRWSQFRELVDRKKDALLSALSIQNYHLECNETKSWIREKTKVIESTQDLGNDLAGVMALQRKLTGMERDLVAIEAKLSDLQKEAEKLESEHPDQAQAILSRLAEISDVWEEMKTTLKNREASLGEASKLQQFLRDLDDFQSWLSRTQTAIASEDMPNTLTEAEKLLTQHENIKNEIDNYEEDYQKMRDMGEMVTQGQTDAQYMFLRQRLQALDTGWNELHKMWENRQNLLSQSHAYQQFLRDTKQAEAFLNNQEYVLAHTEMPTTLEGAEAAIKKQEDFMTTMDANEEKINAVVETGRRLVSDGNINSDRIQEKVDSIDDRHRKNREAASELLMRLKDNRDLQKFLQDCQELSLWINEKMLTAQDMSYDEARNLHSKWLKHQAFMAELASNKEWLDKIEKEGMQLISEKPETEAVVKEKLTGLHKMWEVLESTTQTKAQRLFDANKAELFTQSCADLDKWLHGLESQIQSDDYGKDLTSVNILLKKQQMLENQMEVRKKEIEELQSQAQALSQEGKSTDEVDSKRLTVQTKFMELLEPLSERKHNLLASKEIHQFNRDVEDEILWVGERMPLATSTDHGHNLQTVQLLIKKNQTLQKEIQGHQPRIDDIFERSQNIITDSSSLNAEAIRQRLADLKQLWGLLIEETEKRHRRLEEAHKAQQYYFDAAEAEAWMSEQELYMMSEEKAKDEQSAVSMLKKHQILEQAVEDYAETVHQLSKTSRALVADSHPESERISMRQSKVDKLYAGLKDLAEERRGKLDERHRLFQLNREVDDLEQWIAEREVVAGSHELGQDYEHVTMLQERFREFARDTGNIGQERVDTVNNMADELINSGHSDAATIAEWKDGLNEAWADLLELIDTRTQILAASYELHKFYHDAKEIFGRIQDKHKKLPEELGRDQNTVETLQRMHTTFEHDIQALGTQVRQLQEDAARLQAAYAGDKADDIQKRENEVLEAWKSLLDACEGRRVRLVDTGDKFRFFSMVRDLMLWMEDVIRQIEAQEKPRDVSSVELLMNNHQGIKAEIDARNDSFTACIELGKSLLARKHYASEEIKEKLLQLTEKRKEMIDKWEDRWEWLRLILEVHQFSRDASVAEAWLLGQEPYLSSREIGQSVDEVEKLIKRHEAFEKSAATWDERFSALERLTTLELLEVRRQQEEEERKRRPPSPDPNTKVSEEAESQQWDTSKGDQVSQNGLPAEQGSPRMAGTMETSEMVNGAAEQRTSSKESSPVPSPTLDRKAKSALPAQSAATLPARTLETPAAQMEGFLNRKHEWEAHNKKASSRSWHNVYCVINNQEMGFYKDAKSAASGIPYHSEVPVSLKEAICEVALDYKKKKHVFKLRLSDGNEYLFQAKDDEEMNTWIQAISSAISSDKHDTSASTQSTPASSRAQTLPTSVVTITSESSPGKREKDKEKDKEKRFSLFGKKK

For the molecule `CCCCC/C=C\C/C=C\C/C=C\C/C=C\CCCC(=O)NCCO` [AEA, anandamide, reference compound], the “SILAC ratio Ftl1” value in test [1] (competitor 200 μM) turned out to be 1.6. For the same molecule, the “SILAC ratio, Canx” value in test [2] (competitor 200 μM) came out at 1.6. For the same molecule, the “SILAC ratio, Slc25a26” value in test [3] (competitor 200 μM) is recorded as 1.0. In addition, the “SILAC ratio, Scarb1” value in test [4] (competitor 200 μM) came out at 1.6. For the same molecule, in test [5] (competitor 200 μM), the “SILAC ratio Sptbn1” value came to 1.1. Moreover, the “SILAC ratio, Adpgk” value in test [6] (competitor 200 μM) is 1.8. In addition, in test [7] (competitor 200 μM), the “SILAC ratio, Slc35b2” value is listed as 1.9. Moreover, the “SILAC ratio (AEA-DA competition)” value in test [8] (competitor 200 μM) is 1.0.

Consider `O=C(/C=C/c1cccnc1)NCCCCC1CCN(C(=O)c2ccccc2)CC1` [FK-866, reference compound], for which the “SILAC ratio Ftl1” value in test [1] (competitor 25 μM) is 1.6. Besides, in test [2] (competitor 25 μM), the “SILAC ratio, Canx” value is recorded as 1.2. Besides, the “SILAC ratio, Slc25a26” value in test [3] (competitor 25 μM) is listed as 0.8. Besides, the “SILAC ratio, Scarb1” value in test [4] (competitor 25 μM) turned out to be 2.3. In addition, the “SILAC ratio Sptbn1” value in test [5] (competitor 25 μM) worked out at 1.3. For the same molecule, in test [6] (competitor 25 μM), the “SILAC ratio, Adpgk” value amounted to 1.2. For the same molecule, the “SILAC ratio, Slc35b2” value in test [7] (competitor 25 μM) is given as 1.0.

Turning to `CN1CCN(C(=O)c2c(-c3ccccc3)c3cc([N+](=O)[O-])ccc3n2C)CC1` [KML110, (1-Methyl-5-nitro-3-phenyl-1H-indol-2-yl)(4-methylpiperazin-1-yl)methanone], the “SILAC ratio Ftl1” value in test [1] (competitor 25 μM) was determined as 0.9. Further, the “SILAC ratio, Canx” value in test [2] (competitor 25 μM) is on record as 1.6. The “SILAC ratio, Slc25a26” value in test [3] (competitor 25 μM) is recorded as 0.7. For the same molecule, the “SILAC ratio, Scarb1” value in test [4] (competitor 25 μM) is on record as 2.8. The “SILAC ratio Sptbn1” value in test [5] (competitor 25 μM) was found to be 1.2. Besides, in test [6] (competitor 25 μM), the “SILAC ratio, Adpgk” value was determined as 1.5. The “SILAC ratio, Slc35b2” value in test [7] (competitor 25 μM) worked out at 1.3.

Consider `CN1CCN(C(=O)c2[nH]c3ccc([N+](=O)[O-])cc3c2-c2ccccc2)CC1` [MJN228, (4-Methylpiperazin-1-yl)(5-nitro-3-phenyl-1H-indol-2-yl)methanone], for which the “SILAC ratio Ftl1” value in test [1] (competitor 100 μM) came to 1.0. The “SILAC ratio, Canx” value in test [2] (competitor 10 μM) is on record as 1.3; in test [2] (competitor 25 μM), 1.7; in test [2] (competitor 50 μM), 1.8; in test [2] (competitor 100 μM), 2.6. Further, the “SILAC ratio, Slc25a26” value in test [3] (competitor 10 μM) was 0.9; in test [3] (competitor 25 μM), 0.7; in test [3] (competitor 50 μM) it was 0.3; in test [3] (competitor 100 μM), 0.4. Also, the “SILAC ratio, Scarb1” value in test [4] (competitor 10 μM) worked out at 1.6; in test [4] (competitor 25 μM), 2.0; in test [4] (competitor 50 μM) it was 3.2; in test [4] (competitor 100 μM), 4.9. The “SILAC ratio Sptbn1” value in test [5] (competitor 10 μM) was 1.0; in test [5] (competitor 25 μM), 1.2; in test [5] (competitor 100 μM) it was 1.3. The “SILAC ratio, Adpgk” value is on record as 1.4 in test [6] (competitor 10 μM), 1.7 in test [6] (competitor 25 μM), 1.5 in test [6] (competitor 50 μM) and 2.0 in test [6] (competitor 100 μM). For the same molecule, the “SILAC ratio, Slc35b2” value in test [7] (competitor 10 μM) is recorded as 1.0; in test [7] (competitor 25 μM) it was 1.1; in test [7] (competitor 50 μM), 1.6; in test [7] (competitor 100 μM), 1.2. The “SILAC ratio (AEA-DA competition)” value in test [8] (competitor 10 μM) came out at 1.0; in test [8] (competitor 25 μM) it was 1.4.

On to `C=CCN(C)CCCCCCOc1ccc(C(=O)c2ccc(Br)cc2)c(F)c1` [Ro 48-8071, reference compound], for which the “SILAC ratio Ftl1” value in test [1] (competitor 25 μM) was 0.4. Further, the “SILAC ratio, Canx” value in test [2] (competitor 25 μM) is listed as 1.2. Further, the “SILAC ratio, Slc25a26” value in test [3] (competitor 25 μM) is listed as 0.7. The “SILAC ratio, Scarb1” value in test [4] (competitor 25 μM) was 2.9. The “SILAC ratio Sptbn1” value in test [5] (competitor 25 μM) worked out at 1.0. In addition, in test [6] (competitor 25 μM), the “SILAC ratio, Adpgk” value is 1.2. Besides, the “SILAC ratio, Slc35b2” value in test [7] (competitor 25 μM) came to 0.9. The “SILAC ratio (AEA-DA competition)” value in test [8] (competitor 25 μM) came to 0.7.

(Values after patent US10168342B2, “Lipid probes and uses thereof” (THE SCRIPPS RESEARCH INSTITUTE, priority 2015, dated 2019).)
